Assays:
[1] = Stability assay in 10% FBS (gel electrophoresis of remaining DNA); conditions: 37° C., 5.3 μM; for time until entirely degraded: 10% FBS and 1X PBS
Beta*Tmm = assay: Hybridization with complementary DNA carrying a mismatched T, native gel electrophoresis; type: binding; conditions: stoichiometric complementary DNA, temperature annealing
From the text: (§1) Hybridization-driven self-assembly has made DNA a versatile building material for nanoscience. The sequence control over SBiB incorporation in DNA can expand the availability of DNA-initiators as new precursors for the fabrication of hybrid nanomaterials. Towards such an end, the hybridization of a mixed oligonucleotide sequence containing an internal SBiB initiator residue in the middle (Beta-SBiB1) was studied with a stoichiometric amount of complementary DNA followed by temperature annealing. For hybridization experiments, two different complementary strands to Beta-SBiB1 were used: one which was fully complementary to the Beta sequence (Beta*) and another that was fully complementary to the Beta sequence with the additional inclusion of a mismatched T residue opposite the SBiB location within the Beta sequence (Beta*Tmm). Beta*Tmm was used to evaluate if the single T residue opposite the 3 carbons insert of SBiB could reduce the strain during duplex formation.
(§2) Double-stranded DNA preparation and melting curve analysis. Desired single-stranded DNA (Beta or Beta-SBiB) was mixed with a stoichiometric amount of complementary DNA (Beta* or Beta*Tmm) at a final concentration of 20 μM in 1×PBS. The DNA mixture was placed in a heat block at 95° C. for 5 min. Following the heating process, the heat block was turned off and slowly cooled to room temperature (approx. 0.5° C./min). […]

Beta* = assay: Hybridization with complementary DNA, native gel electrophoresis; type: binding; conditions: stoichiometric complementary DNA, temperature annealing, for Beta-SBiB2 the complementary strand is not stated
From the text: as §1, §2

unmodified Beta DNA: purchased 21-mer DNA, ACGTCGAGCAGTCAGAGCTGT (DNA ACGTCGAGCAGTCAGAGCTGT; unmodified DNA)
time until entirely degraded ([1]; in the absence of free pOEOMA): ≤ 12 h | time until entirely degraded ([1]; in the presence of free pOEOMA in the supernatant): ≤ 12 h

Beta-SBiB3: /i/ ACG TCG AGC AGT /i/ CAG AGC TG /i/ T
degradation ([1]; 10% FBS, after 24 hours): 46%

Beta-SBiB1: ACG TCG AGC AGT /i/ CAG AGC TGT, i = SBiB residue
hybridization (duplex formation) (Beta*Tmm): successfully hybridize | hybridization (duplex formation) (Beta*): successfully hybridize
